{"source": "patent US20230095026A1", "about": "“METHOD FOR STIMULATING AND INDUCING CHANGES IN ENVIRONMENT AROUND AGED SKIN CELLS” (AMOREPACIFIC CORPORATION, priority 2019, published 2023)", "key": {"Fibroblast cells": {"test_system": "Fibroblast cells", "experiment": "Change in the number of UVB-aged fibroblast cells, SA-β-gal staining", "format": "cell-based, human"}, "pigment-forming cells": {"test_system": "pigment-forming cells", "experiment": "Change in morphology and cell number of UVB-aged pigment-forming cells, SA-β-gal staining", "format": "cell-based, human", "experimental": "Subsequently, the cells were treated with a compound represented by Chemical Formula E (Sigma-Aldrich Co., Ltd.)."}}}
{"smiles": "O=C(O)[C@]1(O)C[C@@H](O)[C@@H](O)[C@H](O)C1", "note": "[Chemical Formula E]", "values": [{"measurement": "number of cells", "setting": "Fibroblast cells; UVB-aged fibroblasts treated with the compound, FIGS. 4 and 5", "result": "the number of cells increased again depending on the concentration"}, {"measurement": "ratio of the number of the aged cells stained with SA-β-gal to the total number of cells", "setting": "Fibroblast cells; UVB-aged fibroblasts, FIG. 6", "result": "decreased depending on the concentration"}, {"measurement": "number of cells", "setting": "pigment-forming cells; UVB-aged pigment-forming cells treated with the compound, FIGS. 1 and 2", "result": "the number of cells increased again"}, {"measurement": "ratio of the number of the aged cells stained with SA-β-gal to the total number of cells", "setting": "pigment-forming cells; UVB-aged pigment-forming cells, FIG. 3", "result": "decreased depending on the concentration"}]}
